Experimental data published in ChEMBL document CHEMBL1150173, “Antiviral saponins from Tieghemella heckelii” (J Nat Prod, 2002).
Active and inactive are the calls of the source. The rule behind the calls is not given here.

How the values were obtained:
HeLa = test: Cytotoxicity against human HeLa cells expressing CD4+ construct at 20 uM after 3 days by MTT assay; type: cell-based; conditions: 72 h
[1] = tested on: Human immunodeficiency virus 1; test: Inhibition of HIV1 in wild type CHO cells mediated human HeLa-CD4+ cell fusion assessed as inhibition of syncytium formation at 20 uM by cell-cell fusion assay; type: functional

Structure (SMILES)	Activity (HeLa)	Activity [1]	inhibition at 20 µM ([1]; Human immunodeficiency virus 1, CHO)
C[C@@H]1O[C@@H](O[C@@H]2[C@@H](O)[C@H](O[C@@H]3[C@@H](O)[C@@H](O)[C@H](O[C@H]4[C@H](OC(=O)[C@]56CCC(C)(C)C[C@H]5C5=CC[C@@H]7[C@@]8(C)C[C@H](O)[C@H](O[C@@H]9O[C@H](C(=O)O)[C@@H](O)[C@H](O)[C@H]9O)[C@@](C)(CO)[C@@H]8[C@H](O)C[C@@]7(C)[C@]5(C)C[C@H]6O)OC[C@H](O)[C@@H]4O)O[C@H]3C)OC[C@H]2O)[C@H](O)[C@H](O)[C@H]1O [TIEGHEMELIN]	Non-toxic	–	–
CC1(C)CC[C@]2(C(=O)O)[C@H](O)C[C@]3(C)C(=CC[C@@H]4[C@@]5(C)C[C@H](O)[C@H](O[C@@H]6O[C@H](C(=O)O)[C@@H](O)[C@H](O)[C@H]6O)[C@@](C)(CO)[C@@H]5[C@H](O)C[C@]43C)[C@@H]2C1	–	inactive	–
C[C@@H]1O[C@@H](O[C@@H]2[C@@H](O)[C@H](O[C@@H]3[C@@H](O)[C@@H](O)[C@H](O[C@H]4[C@H](OC(=O)[C@]56CCC(C)(C)C[C@H]5C5=CC[C@@H]7[C@@]8(C)C[C@H](O)[C@H](O[C@@H]9O[C@H](CO)[C@@H](O)[C@H](O)[C@H]9O)[C@@](C)(CO)[C@@H]8[C@H](O)C[C@@]7(C)[C@]5(C)C[C@H]6O)OC[C@H](O)[C@@H]4O)O[C@H]3C)OC[C@H]2O)[C@H](O)[C@H](O)[C@H]1O [ARGANINE C]	Non-toxic	–	100%
CC1(C)CC[C@]2(C(=O)O)[C@H](O)C[C@]3(C)C(=CC[C@@H]4[C@@]5(C)C[C@H](O)[C@H](O[C@@H]6O[C@H](CO)[C@@H](O)[C@H](O)[C@H]6O)[C@@](C)(CO)[C@@H]5[C@H](O)C[C@]43C)[C@@H]2C1	–	inactive	–
